{"source": "patent US6069176A", "about": "“Phenylethanolamine compounds useful as β 3 agonists, process for producing the same, and intermediates in the production of the same” (Mitsubishi-Tokyo Pharmaceuticals, Inc., priority 1995, dated 2000)", "key": {"β1 adrenergic receptor": {"biological_target": "T1, β1 adrenergic receptor (Cavia porcellus, UniProt H0W3H1)", "T1 construct": "functional heart beat increase (chronotropy)", "T1 sequence (H0W3H1 1-470)": "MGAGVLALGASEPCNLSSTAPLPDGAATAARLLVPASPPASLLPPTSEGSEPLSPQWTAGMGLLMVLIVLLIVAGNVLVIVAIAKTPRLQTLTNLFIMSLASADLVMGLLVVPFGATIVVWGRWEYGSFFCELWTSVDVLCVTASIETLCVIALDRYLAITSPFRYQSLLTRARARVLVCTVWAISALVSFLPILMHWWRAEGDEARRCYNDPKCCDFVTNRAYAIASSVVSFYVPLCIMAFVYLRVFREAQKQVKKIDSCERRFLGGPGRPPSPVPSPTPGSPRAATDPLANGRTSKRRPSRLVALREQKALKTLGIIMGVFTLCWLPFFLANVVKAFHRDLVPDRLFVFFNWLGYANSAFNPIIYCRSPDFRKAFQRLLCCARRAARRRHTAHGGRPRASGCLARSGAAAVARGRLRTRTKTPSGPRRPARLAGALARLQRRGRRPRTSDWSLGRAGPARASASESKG", "experiment": "[Test 4] heart beat increasing effect on isolated guinea pig right atrium (β1 adrenergic receptor stimulating effect)", "assay_type": "cell-based", "settings": "read-out: EC10 (heart beat increasing effect on isolated guinea pig right atrium)", "experimental": "[Test 4] β1 adrenergic receptor stimulating effect\nIsolated guinea pig right atrium strips were used to examine the heart beat increasing effect. Guinea pig right atriums were isolated by a common method, mounted in an organ bath filled with a nutrient medium (Krebs' buffer, 0.03 mM ascorbic acid, 0.03 mM EDTA, 10 M M phenanthramine) maintained at 37° C., gassed with 95% O2 and 5% CO2, and maintained at an initial tension of 0.5g, after which the cardiac contractile force and heart beats were recorded with a recorder."}, "rat bladder": {"test_system": "rat bladder", "experiment": "[Test 9] bladder contraction induced by electrical stimulation of peripheral end of pelvic nerve in anesthetized rat", "assay_type": "in vivo", "settings": "through femoral vein; 20 Hz, 0.3 msec, 5V; urethane and α-chloralose anesthesia", "excerpt": "[Test 9] Effect on bladder contraction induced by electrical stimulation of peripheral end of pelvic nerve in anesthetized rat\nAfter median incision in the abdomen of rats anesthetized with urethane and α-chloralose, the ureters on both sides were ligated and cut on the kidney side, and pledgets were placed on the cut sections to absorb the urine. Next, the hypogastric nerves on both sides were transected and the base of the penis were ligated at close the urethra. A small hole was opened in the top of bladder and, after inserting one end of a polyethylene tube, ligated. The other end of the polyethylene tube was connected to a pressure transducer (TP 400, Nihon Koden) to measure the intravesical pressure.\nPhysiological saline was injected into the bladder to obtain intravesical pressure at a 100 mm H2 O. The change of the intervesical pressure was recorded with a heat recorder (WT 685G, Nihon Koden). After ablating the left pelvic nerves from the fatty tissue around the bladder and cutting the central section, a platinum electrode was implanted at the peripheral end of the pelvic nerves. An electrical stimulation apparatus (SEN-3301, Nihon Koden) was used for generating a rectangular wave electrical stimulation (20 Hz, 0.3 msec, 5V) for 5 seconds every 5 minutes. […]"}, "[1]": {"test_system": "isolated rat bladder detrusor muscle", "experiment": "[Test 5] relaxing effect on isolated rat bladder detrusor muscle (smooth muscle)", "assay_type": "cell-based", "settings": "read-out: EC50 (relaxing effect on isolated rat bladder detrusor muscle)", "protocol": "[Test 5] Examination of relaxing effect on isolated rat bladder detrusor muscle (smooth muscle)\nRat bladders were isolated by a common method for preparation of strips. The isolated bladder strips were mounted in an organ bath filled with Krebs' solution kept at 37° C., under mixed gas aeration (95% O2 +5% CO2) and subjected to an initial tension of 1.0 g. Each test compound was cumulatively added to the organ bath at intervals of 10 minutes."}, "[2]": {"test_system": "rat confinement stress-induced diarrhea models", "experiment": "[Test 7] suppression of diarrhea in rat confinement stress-induced diarrhea models", "assay_type": "in vivo, rat (male Wistar rats)", "settings": "po, 1.0 mg/kg; feces observed over 3 hours", "experimental": "Examination of suppressing effect on diarrhea using rat confinement stress-induced diarrhea models\nThe nature of the feces excreted over a total of 3 hours was observed every 30 minutes, and the results were recorded as the diarrhea coefficient (0: no fecal excretion, 1: solid feces, 2: soft feces, 3: mild diarrhea, 4: muddy feces). Here, cases with a diarrhea coefficient score of 3 or higher, i.e. from feces which left a stain on filter paper to muddy feces, were judged as diarrhea, and the rate of diarrhea suppression was calculated (Table 6)."}, "β3 adrenergic receptor [3]": {"biological_target": "T2, β3 adrenergic receptor (Rattus norvegicus, UniProt P26255)", "T2 sequence (P26255 whole entry)": "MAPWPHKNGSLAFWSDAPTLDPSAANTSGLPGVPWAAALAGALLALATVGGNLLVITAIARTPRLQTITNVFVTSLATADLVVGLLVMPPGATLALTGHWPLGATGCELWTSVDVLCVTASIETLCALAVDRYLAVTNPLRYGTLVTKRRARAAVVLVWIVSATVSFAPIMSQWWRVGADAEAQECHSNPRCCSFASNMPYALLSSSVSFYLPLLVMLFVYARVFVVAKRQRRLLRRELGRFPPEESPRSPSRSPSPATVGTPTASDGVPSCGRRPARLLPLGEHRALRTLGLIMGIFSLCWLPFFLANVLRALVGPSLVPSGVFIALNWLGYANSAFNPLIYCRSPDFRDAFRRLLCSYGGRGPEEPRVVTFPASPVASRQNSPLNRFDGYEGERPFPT", "experiment": "[Test 1] spontaneous locomotion-suppressing effect on isolated rat colon (β3 adrenergic receptor stimulating effect)", "assay_type": "cell-based"}, "β3 adrenergic receptor [4]": {"biological_target": "T2, β3 adrenergic receptor", "experiment": "cell-based", "set-up": "Isolated rat fat was used to examine the effect on fat decomposition; from tissue; host or cells: adipocytes from fat around the testicles of male SD rats; species or system rat (male SD rats)", "settings": "rat adipocyte suspension, 30 minutes at 30° C., glycerol content; read-out: lypolytic activity (EC50 value)"}, "rat colon [5]": {"test_system": "rat colon", "experiment": "[Test 6] suppressing effect on spontaneous locomotion of anesthetized rat colon (in vivo test)", "set-up": "species or system rat (male Wistar rats)", "settings": "iv, 10 min, read-out: ED50 (suppressing effect on spontaneous locomotion of anesthetized rat colon)", "protocol": "[Test 6] […] The lead wire of the force transducer was connected to a multipurpose preamp through a bridge box (FB-01, Star Medical), and the spontaneous locomotion of the colon was recorded with a Thermal Array Recorder (Nihon Koden), upon which the total degrees of contraction over 10 minutes were compared before and after bolus administration."}, "β2 adrenergic receptor": {"biological_target": "β2 adrenergic receptor (Cavia porcellus, UniProt Q8K4Z4)", "sequence (Q8K4Z4 whole entry)": "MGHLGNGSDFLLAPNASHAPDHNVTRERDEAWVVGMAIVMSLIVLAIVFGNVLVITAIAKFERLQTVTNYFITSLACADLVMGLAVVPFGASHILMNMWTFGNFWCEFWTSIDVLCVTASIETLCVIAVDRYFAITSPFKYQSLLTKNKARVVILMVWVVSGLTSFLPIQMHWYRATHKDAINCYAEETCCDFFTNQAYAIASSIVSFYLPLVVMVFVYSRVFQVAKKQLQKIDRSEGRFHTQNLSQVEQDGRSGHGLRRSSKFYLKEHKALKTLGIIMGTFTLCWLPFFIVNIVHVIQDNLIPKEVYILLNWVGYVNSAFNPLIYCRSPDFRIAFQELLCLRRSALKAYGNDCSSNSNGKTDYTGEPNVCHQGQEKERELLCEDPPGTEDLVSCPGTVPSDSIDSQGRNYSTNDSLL", "experiment": "[Test 3] relaxing effect on isolated guinea pig tracheal muscle (β2 adrenergic receptor stimulating effect)", "assay_type": "cell-based"}, "β3 adrenergic receptors": {"test_system": "β3 adrenergic receptors", "settings": "prior art; cited from earlier work"}, "rat colon [6]": {"test_system": "rat colon", "settings": "Drugs of the Future, 18, 529-549 (1993); cited from earlier work"}, "[7]": {"settings": "Drugs of the Future, 18, 529-549 (1993); cited from earlier work"}, "bladder detrusor muscle": {"test_system": "bladder detrusor muscle", "settings": "The autonomic nervous system, 26, 380-387 (1989); cited from earlier work"}, "[8]": {"settings": "treatment for urinary incontinence; cited from earlier work"}, "[9]": {"settings": "10% augmentation of heart beats, 37° C."}}, "note": "Structures can show the parent of a compound that is named as a salt. Where two headings read alike, the source gives them in different places."}
{"molecule": "O=C([O-])COc1cccc(C2CCCC(NC[C@H](O)c3cccc(Cl)c3)C2)c1.[Na+]", "note": "(stereo partly shown)", "values": [{"measurement": "EC10", "setting": "β1 adrenergic receptor", "result": "> 30000", "unit": "nM"}, {"measurement": "suppression of bladder contraction (FIG. 2)", "setting": "rat bladder", "result": "suppressed bladder contraction at a lower dose than Clenbuterol hydrochloride"}, {"measurement": "EC50", "setting": "[1]", "result": 16, "unit": "nM"}, {"measurement": "diarrhea suppression rate", "setting": "[2]", "result": 60, "unit": "%"}, {"measurement": "EC50", "setting": "β3 adrenergic receptor [3]", "result": 1.4, "unit": "nM"}, {"measurement": "EC50", "setting": "β3 adrenergic receptor [4]", "result": 21, "unit": "nM"}, {"measurement": "ED50", "setting": "rat colon [5]", "result": 0.27, "unit": "µg/kg"}, {"measurement": "EC50", "setting": "β2 adrenergic receptor", "result": 4200, "unit": "nM"}]}
{"molecule": "O=C([O-])COc1ccccc1C1CCCC(NC[C@H](O)c2cccc(Cl)c2)C1.[Na+]", "note": "(stereo partly shown)", "values": [{"measurement": "EC10", "setting": "β1 adrenergic receptor", "result": "> 30000", "unit": "nM"}, {"measurement": "diarrhea suppression rate", "setting": "[2]", "result": 30, "unit": "%"}, {"measurement": "EC50", "setting": "β3 adrenergic receptor [3]", "result": 3.3, "unit": "nM"}, {"measurement": "EC50", "setting": "β2 adrenergic receptor", "result": 890, "unit": "nM"}]}
{"molecule": "CCOC(=O)COc1ccc2c(c1)CC(NCC(O)c1cccc(Cl)c1)CC2.Cl", "note": "(racemic) [SR 58611A, (RS)-N-(7-ethoxycarbonylmethoxy-1,2,3,4-tetrahydronaphth-2-yl)-2-(3-chlorophenyl)-2-hydroxyethanamine hydrochloride, reference compound]", "values": [{"measurement": "EC10", "setting": "β1 adrenergic receptor; [9]", "result": "> 30000", "unit": "nM"}, {"measurement": "diarrhea suppression rate", "setting": "[2]", "result": 20, "unit": "%"}, {"measurement": "selective action on β3 adrenergic receptors", "setting": "β3 adrenergic receptors", "result": "act selectively on β3 adrenergic receptors"}, {"measurement": "EC50", "setting": "β3 adrenergic receptor [3]", "result": 7.7, "unit": "nM"}, {"measurement": "suppressing effect on spontaneous locomotion of rat colon", "setting": "rat colon [6]", "result": "potent suppressing effect on spontaneous locomotion of rat colon"}, {"measurement": "ED50", "setting": "rat colon [5]", "result": 12, "unit": "µg/kg"}, {"measurement": "EC50", "setting": "β2 adrenergic receptor", "result": 14000, "unit": "nM"}]}
{"molecule": "COC(=O)COc1ccc(C[C@@H](C)NC[C@H](O)c2cccc(Cl)c2)cc1", "note": "(relative stereo) [BRL35135, (R*R*)-(±)-[4-[2-[2-(3-chlorophenyl)-2-hydroxyethylamino]propyl]phenoxy]acetic acid methyl ester hydrobromide salt]", "values": [{"measurement": "lypolytic and hypoglycemic effect", "setting": "[7]", "result": "lypolytic and hypoglycemic effect"}, {"measurement": "selective action on β3 adrenergic receptors", "setting": "β3 adrenergic receptors", "result": "act selectively on β3 adrenergic receptors"}]}
{"molecule": "O=C(O)COc1ccc(C2CCCC(NC[C@H](O)c3cccc(Cl)c3)C2)cc1", "note": "(single isomer, unassigned) [Example 32, acetate]", "values": [{"measurement": "EC10", "setting": "β1 adrenergic receptor; [9]", "result": "> 30000", "unit": "nM"}, {"measurement": "EC50", "setting": "β3 adrenergic receptor [3]", "result": 12, "unit": "nM"}, {"measurement": "EC50", "setting": "β2 adrenergic receptor", "result": 15000, "unit": "nM"}]}
{"molecule": "CC(C)(C)NCC(O)c1cc(Cl)c(N)c(Cl)c1", "note": "(stereo not shown) [Clenbuterol]", "values": [{"measurement": "relaxing effect on the bladder detrusor muscle", "setting": "bladder detrusor muscle", "result": "relaxing effect on the bladder detrusor muscle"}, {"measurement": "EC50", "setting": "[1]", "result": 31, "unit": "nM"}, {"measurement": "side-effects", "setting": "[8]", "result": "side-effects including finger tremor and palpitation"}]}
{"molecule": "CCOC(=O)COc1cccc(C2CCCC(NC[C@H](O)c3cccc(Cl)c3)C2)c1", "note": "(stereo partly drawn) [Example 11, (1R)-1-(3-Chlorophenyl)-2-[3-(3-ethoxycarbonylmethoxyphenyl)cyclohexylamino]ethanol hydrochloride]", "values": [{"measurement": "EC10", "setting": "β1 adrenergic receptor; [9]", "result": "> 30000", "unit": "nM"}, {"measurement": "EC50", "setting": "β3 adrenergic receptor [3]", "result": 3.7, "unit": "nM"}, {"measurement": "ED50", "setting": "rat colon [5]", "result": 0.23, "unit": "µg/kg"}, {"measurement": "EC50", "setting": "β2 adrenergic receptor", "result": 790, "unit": "nM"}]}
{"molecule": "CCOC(=O)COc1cccc(C2CCCC(NC[C@H](O)c3cccc(Cl)c3)C2)c1", "note": "(stereo partly drawn) [Example 14, (1R)-1-(3-Chlorophenyl)-2-[3-(3-ethoxycarbonylmethoxyphenyl)cyclohexylamino]ethanol]", "values": [{"measurement": "diarrhea suppression rate", "setting": "[2]", "result": 50, "unit": "%"}]}
{"molecule": "CCOC(=O)COc1ccc(C2CCCC(NC[C@H](O)c3cccc(Cl)c3)C2)cc1", "note": "(stereo partly drawn) [Example 28, (1R)-1-(3-Chlorophenyl)-2-[3-(4-ethoxycarbonylmethoxyphenyl)cyclohexylamino]ethanol hydrochloride]", "values": [{"measurement": "EC50", "setting": "β3 adrenergic receptor [3]", "result": 15, "unit": "nM"}, {"measurement": "EC50", "setting": "β2 adrenergic receptor", "result": 1100, "unit": "nM"}]}
{"molecule": "CCOC(=O)COc1ccccc1C1CCCC(NC[C@H](O)c2cccc(Cl)c2)C1", "note": "(stereo partly drawn) [Example 43, (1R)-(3-Chlorophenyl)-2-[3-(2-ethoxycarbonylmethoxyphenyl)cyclohexylamino]ethanol hydrochloride]", "values": [{"measurement": "EC10", "setting": "β1 adrenergic receptor; [9]", "result": "> 30000", "unit": "nM"}, {"measurement": "diarrhea suppression rate", "setting": "[2]", "result": 50, "unit": "%"}, {"measurement": "EC50", "setting": "β3 adrenergic receptor [3]", "result": 3.8, "unit": "nM"}, {"measurement": "EC50", "setting": "β2 adrenergic receptor", "result": 820, "unit": "nM"}]}
{"molecule": "CCOC(=O)C1(C(=O)OCC)Oc2ccc(C3CCCC(NC[C@H](O)c4cccc(Cl)c4)C3)cc2O1", "note": "(stereo partly drawn) [Example 60, (2R)-Diethyl 5-[3-[2-(3-chlorophenyl)-2-hydroxyethylamino]cyclohexyl]benzo-1,3-dioxol-2,2-dicarboxylate]", "values": [{"measurement": "EC50", "setting": "β3 adrenergic receptor [3]", "result": 42, "unit": "nM"}]}
{"molecule": "CCOC(=O)COc1ccc(C2CCC(NC[C@H](O)c3cccc(Cl)c3)C2)cc1", "note": "(stereo partly drawn) [Example 69, (2R)-Ethyl (4-[3-[2-(3-chlorophenyl)-2-hydroxyethylamino]cyclopentyl]phenoxy)acetate]", "values": [{"measurement": "EC10", "setting": "β1 adrenergic receptor; [9]", "result": "> 30000", "unit": "nM"}, {"measurement": "EC50", "setting": "β3 adrenergic receptor [3]", "result": 90, "unit": "nM"}, {"measurement": "EC50", "setting": "β2 adrenergic receptor", "result": 820, "unit": "nM"}]}
{"molecule": "CC(C)NCC(O)c1ccc(O)c(O)c1", "note": "(stereo not shown) [Isoproterenol]", "values": [{"measurement": "EC50", "setting": "[1]", "result": 10, "unit": "nM"}]}
